From patent publication US6583150B1, “Pharmaceutical composition based on polyaromatic compounds” (Laboratorie L. Lafon, priority 1999, dated 2003) come the findings set out here.

As usually defined, the MTD is the largest dose that counted as tolerated. Low readings indicate a narrow tolerated range, high ones a wide tolerated range.

The data set can be described thus: Determination of the maximum tolerated dose (MTD). Type of data set: in vivo. The note with it: mouse, in vivo, ip; single intraperitoneal administration, survival over 14 days, B6D2F1/Jico mice. The protocol: The evaluation of the maximum tolerated dose was carried out on 4- to 6-week-old B6D2F1/Jico mice. […] The value of the MTD (expressed in mg/kg) is determined from observing the survival rate of the animals over a period of 14 days after a single administration of the product under consideration. The change in the weight of the animals is also monitored over this period.
On to `O=C1c2nc(O)ccc2-c2nc3ccccc3c3ccnc1c23` [CRL 8432, 10-Hydroxybenzo[b]pyrido[4,3,2-de][1,7]phenanthroline-8-one], for which the MTD at 14 days is more than 160 mg/kg.
To `CN(C)c1ccnc2c1-c1nc3ccccc3c3ccnc(c13)C2=O` [CRL 8427, 12-Dimethylaminobenzo[b]pyrido[4,3,2-de][1,7]phenanthroline-8-one] belongs more than 160 mg/kg; to `O=C1c2nccc(Cl)c2-c2nc3ccccc3c3ccnc1c23` [CRL 8242, 12-Chlorobenzo[b]pyrido[4,3,2-de][1,7]phenanthroline-8-one], more than 160 mg/kg; to `O=C1c2nccc(-c3ccccc3NC(=O)C(F)(F)F)c2C(=O)c2c([N+](=O)[O-])ccnc21` [CRL 8267, 6-Nitro-4-(2-trifluoroacetamidophenyl)pyrido[3,2-g]-quinoline-5,10-dione], 20 mg/kg.
`O=C1c2nccc([N+](=O)[O-])c2-c2nc3ccccc3c3ccnc1c23` [CRL 8273, 12-Nitrobenzo[b]pyrido[4,3,2-de][1,7]phenanthroline-8-one] gave an MTD at 14 days of more than 80 mg/kg.
To `O=C1c2nccc(Cl)c2C(=O)c2c(-c3ccccc3[N+](=O)[O-])ccnc21` [CRL 8296, 6-Chloro-4-(2-nitrophenyl)pyrido[3,2-g]quinoline-5,10-dione] belongs 80 mg/kg; to `O=C1c2nccc(Cl)c2C(=O)c2c(-c3ccccc3NC(=O)C(F)(F)F)ccnc21` [CRL 8250, 6-Chloro-4-(2-trifluoroacetamidophenyl)pyrido[3,2-g]-quinoline-5,10-dione], 20 mg/kg.
With `CN(C)c1ccnc2c1C(=O)c1c(-c3ccccc3NC(=O)C(F)(F)F)ccnc1C2=O` [CRL 8426, 6-(Dimethylamino)-4-(2-trifluoroacetamidophenyl)pyrido-[3,2-g]quinoline-5,10-dione] the figure was more than 160 mg/kg.
To `COc1ccnc2c1C(=O)c1c(-c3ccccc3[N+](=O)[O-])ccnc1C2=O` [CRL 8243, 6-Methoxy-4-(2-nitrophenyl)pyrido[3,2-g]quinoline-5,10-dione] belongs more than 160 mg/kg; to `Nc1ccnc2c1C(=O)c1c(-c3ccccc3[N+](=O)[O-])ccnc1C2=O` [CRL 8300, 6-Amino-4-(2-nitrophenyl)pyrido[3,2-g]quinoline-5,10-dione], 80 mg/kg; to `O=C(O)C(F)(F)F.O=C1c2nccc(Br)c2-c2nc3ccccc3c3ccnc1c23` [CRL 8259, 12-Bromobenzo[b]pyrido[4,3,2-de][1,7]phenanthroline-8-one Trifluoroacetate], 40 mg/kg.
In the case of `O=C1c2nc(O)ccc2C(=O)c2c(-c3ccccc3NC(=O)C(F)(F)F)ccnc21` [CRL 8429, 8-Hydroxy-4-(2-trifluoroacetamidophenyl)pyrido[3,2-g]-quinoline-5,10-dione], the maximum tolerated dose (MTD) at 14 days is 40 mg/kg.
To `CC(=O)Nc1ccnc2c1C(=O)c1c(-c3ccccc3NC(=O)C(F)(F)F)ccnc1C2=O` [CRL 8428, 6-(Acetamido)-4-(2-trifluoroacetamidophenyl)pyrido-[3,2-g]quinoline-5,10-dione] belongs more than 160 mg/kg; to `O=C(O)C(F)(F)F.O=C1c2nccc([N+](=O)[O-])c2-c2nc3ccccc3c3ccnc1c23` [CRL 8258, 12-Nitrobenzo[b]pyrido[4,3,2-de][1,7]phenanthroline-8-one Trifluoroacetate], 40 mg/kg.
